Assay results published in patent publication US20220220103A1, “CYCLIN-DEPENDENT KINASE INHIBITORS” (SPV THERAPEUTICS INC., priority 2018, published 2022).
pIC50: −log10 of the molar value. Where “and” joins values, the source holds several entries; their conditions need not be identical. Equal entries are not always repeated. Where two headings read alike, the source gives them in different places.

Columns and labels:
CDK4-CYCLIND1 = CDK4-CYCLIND1 (Homo sapiens, UniProt P11802); experiment: Microfluidic LabChip inhibition assay, CDK4-CYCLIND1; type: biochemical; settings: ATP 200 μM
Procedure: (§1) The reaction was terminated by the addition of EDTA. The plates were analyzed using a Caliper LabChip 3000.
(§2) Additional inhibition assays were performed as described above.

CDK6-CYCLIND3 = CDK6-CYCLIND3 (Homo sapiens, UniProt Q00534); experiment: Microfluidic LabChip inhibition assay, CDK6-CYCLIND3; type: biochemical; settings: ATP 300 μM
Procedure: as §1, §2

[1] = Table 3a, second values in parentheses on the line below, not explained, read-out: CDK4 CyclinD1 IC50
[2] = Table 3b, second values in parentheses on the line below, not explained, read-out: CDK4 CyclinD1 IC50
[3] = Table 3a, read-out: CDK6 CyclinD3 IC50
[4] = Table 2, 25° C., read-out: CDK4 IC50
[5] = Table 2, 25° C., read-out: CDK6 IC50

CDK4-CYCLIND1, sequence (P11802 whole entry): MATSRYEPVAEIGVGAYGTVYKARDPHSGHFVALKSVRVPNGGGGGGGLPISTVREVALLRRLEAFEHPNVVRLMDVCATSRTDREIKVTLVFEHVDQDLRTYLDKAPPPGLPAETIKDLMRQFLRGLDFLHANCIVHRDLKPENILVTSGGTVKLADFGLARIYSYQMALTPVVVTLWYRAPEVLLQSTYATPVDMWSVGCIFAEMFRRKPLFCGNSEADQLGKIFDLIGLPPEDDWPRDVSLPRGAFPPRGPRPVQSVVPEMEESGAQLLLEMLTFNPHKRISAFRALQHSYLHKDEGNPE
CDK4-CYCLIND1, sequence (P24385 whole entry partner): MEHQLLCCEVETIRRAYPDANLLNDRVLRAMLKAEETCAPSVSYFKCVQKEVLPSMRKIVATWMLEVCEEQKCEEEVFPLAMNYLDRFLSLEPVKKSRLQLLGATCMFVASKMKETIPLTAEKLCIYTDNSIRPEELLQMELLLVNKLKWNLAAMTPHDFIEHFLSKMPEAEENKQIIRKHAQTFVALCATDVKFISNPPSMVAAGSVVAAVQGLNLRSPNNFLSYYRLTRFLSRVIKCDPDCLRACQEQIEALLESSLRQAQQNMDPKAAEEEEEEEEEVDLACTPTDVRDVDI
CDK6-CYCLIND3, sequence (Q00534 whole entry): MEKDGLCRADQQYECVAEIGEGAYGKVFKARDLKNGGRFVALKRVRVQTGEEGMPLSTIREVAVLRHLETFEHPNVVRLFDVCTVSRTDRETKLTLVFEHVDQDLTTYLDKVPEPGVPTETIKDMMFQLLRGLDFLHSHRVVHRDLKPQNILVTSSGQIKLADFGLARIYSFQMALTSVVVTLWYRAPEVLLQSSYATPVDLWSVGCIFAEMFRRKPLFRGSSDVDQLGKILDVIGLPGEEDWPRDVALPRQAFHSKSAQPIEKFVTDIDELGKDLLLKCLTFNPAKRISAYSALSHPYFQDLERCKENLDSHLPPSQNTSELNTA
CDK6-CYCLIND3, sequence (P30281 whole entry partner): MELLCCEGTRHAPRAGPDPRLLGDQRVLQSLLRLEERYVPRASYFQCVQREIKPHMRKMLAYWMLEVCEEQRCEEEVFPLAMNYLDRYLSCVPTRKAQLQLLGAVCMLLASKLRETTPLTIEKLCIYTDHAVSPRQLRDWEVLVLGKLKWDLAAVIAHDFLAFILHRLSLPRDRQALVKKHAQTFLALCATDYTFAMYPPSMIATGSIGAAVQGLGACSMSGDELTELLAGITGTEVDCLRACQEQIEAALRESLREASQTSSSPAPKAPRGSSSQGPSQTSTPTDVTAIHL

| pIC50 (CDK4-CYCLIND1; [1]) | pIC50 (CDK4-CYCLIND1; [2]) | pIC50 (CDK6-CYCLIND3; [3]) | pIC50 (CDK4-CYCLIND1; [4]) | pIC50 (CDK6-CYCLIND3; [5]) | Compound |
| --- | --- | --- | --- | --- | --- |
|  |  |  | 8.34 | 7.84 | CN(C)CCOc1ccc(Nc2ncc3cc(C#N)c(=O)n(C4CCCC4)c3n2)cc1 [Compound B15, 8-cyclopentyl-2-((4-(2-(dimethylamino)ethoxy)phenyl)amino)-7-oxo-7,8-dihydropyrido[2,3-d]pyrimidine-6-carbonitrile] |
|  |  |  | 4.59 | ≤ 4.52 | CN1CCN(c2cnc(Nc3ncc4cc(C#N)c(=O)n(C5CCCC5)c4n3)cc2C(F)(F)F)CC1 [Compound B5, 8-cyclopentyl-2-((5-(4-methylpiperazin-1-yl)-4-(trifluoromethyl)pyridin-2-yl)amino)-7-oxo-7,8-dihydropyrido[2,3-d]pyrimidine-6-carbonitrile] |
|  |  |  | 8.22 | 7.84 | N#Cc1cc2cnc(Nc3ccc(N4CC5(CNC5)C4)nc3)nc2n(C2CCCC2)c1=O [Compound B33, 2-((6-(2,6-diazaspiro[3.3]heptan-2-yl)pyridin-3-yl)amino)-8-cyclopentyl-7-oxo-7,8-dihydropyrido[2,3-d]pyrimidine-6-carbonitrile] |
|  |  |  | 5.55 | 5.03 | N#Cc1cc2cnc(Nc3cc(C(F)(F)F)c(N4CCNCC4)cn3)nc2n(C2CCCC2)c1=O [Compound B10, 8-cyclopentyl-7-oxo-2-((5-(piperazin-1-yl)-4-(trifluoromethyl)pyridin-2-yl)amino)-7,8-dihydropyrido[2,3-d]pyrimidine-6-carbonitrile] |
|  |  |  | 7.33 | 7.21 | CN(C)[C@H]1CCN(c2ccc(Nc3ncc4cc(C#N)c(=O)n(C5CCCC5)c4n3)nc2)C1 [Compound B43, (S)-8-cyclopentyl-2-((5-(3-(dimethylamino)pyrrolidin-1-yl)pyridin-2-yl)amino)-7-oxo-7,8-dihydropyrido[2,3-d]pyrimidine-6-carbonitrile] |
|  |  |  | 7.00 | 6.99 | N#Cc1cc2cnc(Nc3ccc(OCCN4CCCC4)cn3)nc2n(C2CCCC2)c1=O [Compound B7, 8-cyclopentyl-7-oxo-2-((5-(2-(pyrrolidin-1-yl)ethoxy)pyridin-2-yl)amino)-7,8-dihydropyrido[2,3-d]pyrimidine-6-carbonitrile] |
|  |  |  | 6.51 | 6.60 | N#Cc1cc2cnc(Nc3ccc(N4CCNCC4)cn3)nc2n(C23CC(C2)C3)c1=O [Compound B2, 8-(bicyclo[1.1.1]pentan-1-yl)-7-oxo-2-((5-(piperazin-1-yl)pyridin-2-yl)amino)-7,8-dihydropyrido[2,3-d]pyrimidine-6-carbonitrile] |
| 6.34 | 6.34 | 5.83 |  |  | CC(=O)NC(=O)c1cc2cnc(Nc3ccc(N4CCN(C)CC4)cn3)nc2n(C2CCCC2)c1=O [Compound B146, N-acetyl-8-cyclopentyl-2-((5-(4-methylpiperazin-1-yl)pyridin-2-yl)amino)-7-oxo-7,8-dihydropyrido[2,3-d]pyrimidine-6-carboxamide] |
|  |  |  | 8.01 | 7.53 | N#Cc1cc2cnc(Nc3ccc(N4CCC(N5CCOCC5)CC4)cc3)nc2n(C2CCCC2)c1=O [Compound B38, 8-cyclopentyl-2-((4-(4-morpholinopiperidin-1-yl)phenyl)amino)-7-oxo-7,8-dihydropyrido[2,3-d]pyrimidine-6-carbonitrile] |
| 8.06 and 8.20 | 8.06 and 8.20 | 7.43 |  |  | CC(=O)c1c(C)c2cnc(Nc3ccc(OCCN(C)C)nc3)nc2n(C2CCCC2)c1=O [Compound B63, 6-acetyl-8-cyclopentyl-2-((6-(2-(dimethylamino)ethoxy)pyridin-3-yl)amino)-5-methylpyrido[2,3-d]pyrimidin-7(8H)-one] |
|  |  |  | 7.81 | 7.43 | N#Cc1cc2cnc(Nc3ccc(N4CCNCC4)cc3F)nc2n(C2CCCC2)c1=O [Compound B26, 8-cyclopentyl-2-((2-fluoro-4-(piperazin-1-yl)phenyl)amino)-7-oxo-7,8-dihydropyrido[2,3-d]pyrimidine-6-carbonitrile] |
| 8.83 | 8.83 | 7.33 |  |  | CC(=O)c1c(C)c2cnc(Nc3ccc(OCCN(C)C)cn3)nc2n(C2CCCC2)c1=O [Compound B65, 6-acetyl-8-cyclopentyl-2-((5-(2-(dimethylamino)ethoxy)pyridin-2-yl)amino)-5-methylpyrido[2,3-d]pyrimidin-7(8H)-one] |
|  |  |  | 8.64 | 8.22 | CN(C)[C@H]1CCN(c2ccc(Nc3ncc4cc(C#N)c(=O)n(C5CCCC5)c4n3)cc2)C1 [Compound B42, (S)-8-cyclopentyl-2-((4-(3-(dimethylamino)pyrrolidin-1-yl)phenyl)amino)-7-oxo-7,8-dihydropyrido[2,3-d]pyrimidine-6-carbonitrile] |
| 7.33 | 7.33 | 7.09 |  |  | N#Cc1cc2cnc(Nc3ccc(N4CCNCC4)c(F)c3)nc2n(C23CC(C2)C3)c1=O [Compound B147, 8-(bicyclo[1.1.1]pentan-1-yl)-2-((3-fluoro-4-(piperazin-1-yl)phenyl)amino)-7-oxo-7,8-dihydropyrido[2,3-d]pyrimidine-6-carbonitrile] |
|  |  |  | 8.12 | 7.72 | CC(C)N1CCN(c2ccc(Nc3ncc4cc(C#N)c(=O)n(C5CCCC5)c4n3)nc2)CC1 [Compound B25, 8-cyclopentyl-2-((5-(4-isopropylpiperazin-1-yl)pyridin-2-yl)amino)-7-oxo-7,8-dihydropyrido[2,3-d]pyrimidine-6-carbonitrile] |
|  |  |  | 6.34 | 5.85 | CN1CCN(c2ccc(Nc3ncc4cc(C#N)c(=O)n(C5CCCC5)c4n3)c(F)c2)CC1 [Compound B27, 8-cyclopentyl-2-((2-fluoro-4-(4-methylpiperazin-1-yl)phenyl)amino)-7-oxo-7,8-dihydropyrido[2,3-d]pyrimidine-6-carbonitrile] |
|  |  |  | 7.35 | 6.92 | N#Cc1cc2cnc(Nc3ccc(OCCN4CCCC4)nc3)nc2n(C2CCCC2)c1=O [Compound B28, 8-cyclopentyl-7-oxo-2-((6-(2-(pyrrolidin-1-yl)ethoxy)pyridin-3-yl)amino)-7,8-dihydropyrido[2,3-d]pyrimidine-6-carbonitrile] |

Second part, the compound before the results:

| Compound | pIC50 (CDK4-CYCLIND1; [1]) | pIC50 (CDK4-CYCLIND1; [2]) | pIC50 (CDK6-CYCLIND3; [3]) | pIC50 (CDK4-CYCLIND1; [4]) | pIC50 (CDK6-CYCLIND3; [5]) |
| --- | --- | --- | --- | --- | --- |
| CN1CCN(c2ccc(Nc3ncc4cc(C(=O)N(C)C)c(=O)n(C5CCCC5)c4n3)cc2F)CC1 [Compound B139, 8-cyclopentyl-2-((3-fluoro-4-(4-methylpiperazin-1-yl)phenyl)amino)-N,N-dimethyl-7-oxo-7,8-dihydropyrido[2,3-d]pyrimidine-6-carboxamide] | 8.13 | 8.13 | 7.12 |  |  |
| CNC(=O)c1cc2cnc(Nc3ccc(N4CCN(C)CC4)cc3)nc2n(C2CCCC2)c1=O [Compound B143, 8-cyclopentyl-N-methyl-2-((4-(4-methylpiperazin-1-yl)phenyl)amino)-7-oxo-7,8-dihydropyrido[2,3-d]pyrimidine-6-carboxamide] | 7.77 |  | 6.87 |  |  |
| CC(C)N1CCN(c2ccc(Nc3ncc4cc(C#N)c(=O)n(C5CCCC5)c4n3)c(F)c2)CC1 [Compound B19, 8-cyclopentyl-2-((2-fluoro-4-(4-isopropylpiperazin-1-yl)phenyl)amino)-7-oxo-7,8-dihydropyrido[2,3-d]pyrimidine-6-carbonitrile] |  |  |  | 7.16 | 7.05 |
| CC(=O)c1c(C)c2cnc(Nc3ccc(N(C)CCN(C)C)cc3)nc2n(C2CCCC2)c1=O [Compound B64, 6-acetyl-8-cyclopentyl-2-((4-((2-(dimethylamino)ethyl)(methyl)amino)phenyl)amino)-5-methylpyrido[2,3-d]pyrimidin-7(8H)-one] | 8.09 | 8.09 | 7.12 |  |  |
| CC(C)N1CCN(c2ccc(Nc3ncc4cc(C#N)c(=O)n(C56CC(C5)C6)c4n3)nc2)CC1 [Compound B4, 8-(bicyclo[1.1.1]pentan-1-yl)-2-((5-(4-isopropylpiperazin-1-yl)pyridin-2-yl)amino)-7-oxo-7,8-dihydropyrido[2,3-d]pyrimidine-6-carbonitrile] |  |  |  | 6.67 | 6.81 |
| N#Cc1cc2cnc(Nc3ccc(N4CCNCC4)nc3)nc2n(C2CCCC2)c1=O [Compound B22, 8-cyclopentyl-7-oxo-2-((6-(piperazin-1-yl)pyridin-3-yl)amino)-7,8-dihydropyrido[2,3-d]pyrimidine-6-carbonitrile] |  |  |  | 8.16 | 7.71 |
| N#Cc1cc2cnc(Nc3ccc(N4CC5(CNC5)C4)cc3)nc2n(C2CCCC2)c1=O [Compound B31, 2-((4-(2,6-diazaspiro[3.3]heptan-2-yl)phenyl)amino)-8-cyclopentyl-7-oxo-7,8-dihydropyrido[2,3-d]pyrimidine-6-carbonitrile] |  |  |  | 8.62 | 8.08 |
| CN(C)[C@H]1CCN(C(=O)c2ccc(Nc3ncc4cc(C#N)c(=O)n(C5CCCC5)c4n3)cc2F)C1 [Compound B36, (S)-8-cyclopentyl-2-((4-(3-(dimethylamino)pyrrolidine-1-carbonyl)-3-fluorophenyl)amino)-7-oxo-7,8-dihydropyrido[2,3-d]pyrimidine-6-carbonitrile] |  |  |  | 7.88 | 7.14 |
| CN(C)[C@H]1CCN(c2ccc(Nc3ncc4cc(C#N)c(=O)n(C5CCCC5)c4n3)cc2F)C1 [Compound B45, (S)-8-cyclopentyl-2-((4-(3-(dimethylamino)pyrrolidin-1-yl)-3-fluorophenyl)amino)-7-oxo-7,8-dihydropyrido[2,3-d]pyrimidine-6-carbonitrile] |  |  |  | 8.43 | 8.01 |
| CN1CCN(c2ccc(Nc3ncc4cc(C#N)c(=O)n(C5CCCC5)c4n3)cc2)CC1 [ON123300] |  |  |  | 8.77 | 8.32 |
| N#Cc1ccc(N2CCN(c3ncc4cc(C#N)c(=O)n(C5CCCC5)c4n3)CC2)cc1 [Compound B21, 2-(4-(4-cyanophenyl)piperazin-1-yl)-8-cyclopentyl-7-oxo-7,8-dihydropyrido[2,3-d]pyrimidine-6-carbonitrile] |  |  |  | < 4.52 | < 4.52 |
